Assay results from patent US20020132812A1, “Oral hypoglycaemic agents” (priority 2000, published 2002).
Structures can show the parent of a compound that is named as a salt.

With `C(/C1=NCCN1)=C(/c1cccc(C2OCCO2)c1)c1ccccn1` (as salt: fumarate) [Example 32, 2-[2-(4,5-Dihydro-1H-imidazol-2-yl)-1-(3-[1,3]dioxolan-2-yl-phenyl)-vinyl]-pyridine] the melting point was 98 to 98.5 °C. In the case of `c1ccc(C(CC2=NCCN2)c2cccc(C3OCCO3)c2)nc1` (stereo not shown) (as salt: fumarate) [Example 33, 2-[2-(4,5-Dihydro-1H-imidazol-2-yl)-1-(3-[1,3]dioxolan-2-yl-phenyl)ethyl]pyridine], the melting point is reported as 162 to 162.5 °C. `O=Cc1cccc(C(CC2=NCCN2)c2ccccn2)c1` (stereo not shown) (as salt: fumarate) [Example 34, 3-[2-(4,5-Dihydro-1H-imidazol-2-yl)-1-pyridin-2-yl-ethyl]-benzaldehyde] showed a melting point of 138 to 139 °C. With `OCc1cccc(C(CC2=NCCN2)c2ccccn2)c1` (stereo not shown) (as salt: fumarate) [Example 35, 3-[2-(4,5-Dihydro-1H-imidazol-2-yl)-1-pyridin-2-yl-ethyl]-phenyl-methanol] the melting point was 114 to 115 °C. With `Nc1cccc(C(CC2=NCCN2)c2ccccn2)c1` (stereo not shown) (as salt: fumarate) [Example 39, 3-[2-(4,5-Dihydro-1H-imidazol-2-yl)-1-pyridin-2-yl-ethyl]-phenylamine] the melting point was 154 to 155 °C. With `c1ccc(C(CC2=NCCN2)c2cccc3c2OCC3)nc1` (stereo not shown) (as salt: fumarate) [Example 40, 1-(2,3-Dihydro-7-benzofuranyl)-2-(4,5-dihydro-2-imidazolyl)-1-(2-pyridyl)-ethane] the melting point was 166 to 167 °C. In the case of `Oc1cc2c(c(C(CC3=NCCN3)c3ccccn3)c1)OCC2` (stereo not shown) (as salt: hydroiodid) [Example 30, 7-[2-(4,5-Dihydro-1H-imidazol-2-yl)-1-pyridin-2-yl-ethyl]-2,3-dihydro-benzofuran-5-ol], the melting point is reported as 186 to 187 °C. With `FC(F)(F)c1cccc(C(CC2=NCCN2)c2ccc3ccccc3n2)c1` (stereo not shown) [Example 38, ethyl compound, 2-[2-(4,5-Dihydro-1H-imidazol-2-yl)-1-(3-trifluoromethyl-phenyl)-ethyl]-quinoline] the melting point was 92 to 93 °C. `FC(F)(F)c1cccc(/C(=C/C2=NCCN2)c2ccc3ccccc3n2)c1` [Example 38, vinyl compound, 2-[2-(4,5-Dihydro-1H-imidazol-2-yl)-1-(3-trifluoromethyl-phenyl)-vinyl]-quinoline] gave a melting point of 76.5 °C. `Nc1cc2c(c(C(CC3=NCCN3)c3ccccn3)c1)OCC2` (stereo not shown) [Example 41, 7-[2-(4,5-Dihydro-1H-imidazol-2-yl)-1-pyridin-2-yl-ethyl]-2,3-dihydro-benzofuran-5-ylamine] showed a melting point of 143 to 144 °C.
